Experimental data: patent publication US4112086A, “7β-Acylamino-3-(phosphonoalkyl and esterified phosphonoalkyl substituted tetrazolylthiomethyl)cephalosporins” (SmithKline Corporation, priority 1976, dated 1978)
≈ marks a conversion by molar mass, not a printed value. Where a name gives a salt, the structure may show the parent alone. Read-outs that look alike come from different tables or passages of the source.

Assays:
[1] = test system: E. coli HH 33779; assay: in vitro testing, minimum inhibitory concentration (MIC); assay type: cell-based
Experimental: (§1) The compounds of Formula I have anti-bacterial activity against both Gram-positive and Gram-negative organisms. Minimum inhibitory concentrations (MIC's) range from 0.1 to >200 μg/ml in in vitro testing. Test results for the compounds 7β-D-mandelamido-3-(1-diethoxyphosphinylmethyltetrazol-5-ylthiomethyl)-3-cephem-4-carboxylic acid sodium salt hydrate (Compound A), 7β-D-mandelamido-3-(1-ethoxyhydroxyphosphinylmethyltetrazol-5-ylthiomethyl)-3-cephem-4-carboxylic acid disodium salt hydrate (Compound B) and 7β-D-mandelamido-3-(1-phosphonomethyltetrazol-5-ylthiomethyl)-3-cephem-4-carboxylic acid (Compound C) are given below. Results shown in parenthesis are those obtained for cefazolin.

[2] = test system: E. coli SK 12140; assay: as above; assay type: cell-based
Experimental: as §1

[3] = test system: Entero. aerog. ATCC 13048; assay: as above; assay type: cell-based
Experimental: as §1

[4] = test system: Entero. cloacae HH 31254; assay: as above; assay type: cell-based; settings: Enterobacter cloacae, HH31254
Experimental: as §1

[5] = test system: Kleb. pneumo. SK 1200; assay: as above; assay type: cell-based
Experimental: as §1

[6] = test system: Kleb. pneumo. SK 4200; assay: as above; assay type: cell-based; settings: cefazolin values in parenthesis
Experimental: as §1

[7] = test system: Proteus mirabilis 444; assay: as above; assay type: cell-based
Experimental: as §1

[8] = test system: Pseudo. aerug. HH 63; assay: as above; assay type: cell-based
Experimental: as §1

[9] = test system: S. aureus SK 127; assay: as above; assay type: cell-based; settings: Staphylococcus aureus, SK127, cefazolin values in parenthesis
Experimental: as §1

[10] = test system: S. aureus SK 23390; assay: as above; assay type: cell-based
Experimental: as §1

[11] = test system: S. villaluz SK 70390; assay: as above; assay type: cell-based; settings: cefazolin values in parenthesis
Experimental: as §1

[12] = test system: Strep. faecalis HH 34358; assay: as above; assay type: cell-based
Experimental: as §1

[13] = test system: E. coli 12140; assay: in vivo mouse protection test
Experimental: (§2) 4200 upon subcutaneous injection; cefazolin gave results of 4.4 mg/kg against E. coli 12140 and 7.2 mg/kg against Kleb. pneumo. 4200 upon subcutaneous administration.

[14] = test system: Kleb. pneumo. 4200; assay: in vivo mouse protection test; settings: sc
Experimental: as §2

[15] = test system: Proteus morgani 179; assay: in vitro testing, minimum inhibitory concentration (MIC); assay type: cell-based; settings: cefazolin values in parenthesis
Experimental: as §1

[16] = test system: Salmonella ATCC 12176; assay: as above; assay type: cell-based
Experimental: as §1

[17] = test system: Serratia marc. ATCC 13880; assay: as above; assay type: cell-based
Experimental: as §1

[18] = Escherichia coli, HH33779, E. coli HH 33779, cefazolin values in parenthesis, read-out: MIC
[19] = Escherichia coli, SK12140, E. coli SK 12140, in vitro, cefazolin values in parenthesis, read-out: MIC
[20] = Entero. aerog. ATCC 13048, in vitro, cefazolin values in parenthesis, read-out: MIC
[21] = Entero. cloacae HH 31254, in vitro, cefazolin values in parenthesis, read-out: MIC
[22] = Kleb. pneumo. SK 1200, in vitro, cefazolin values in parenthesis, read-out: MIC
[23] = Proteus mirabilis 444, cefazolin values in parenthesis, read-out: MIC
[24] = Pseudo. aerug. HH 63, in vitro, cefazolin values in parenthesis, read-out: MIC
[25] = Staphylococcus aureus, SK23390, S. aureus SK 23390, in vitro, cefazolin values in parenthesis, read-out: MIC
[26] = Enterococcus faecalis, HH34358, cefazolin values in parenthesis, read-out: MIC
[27] = Salmonella, ATCC12176, Salmonella ATCC 12176, cefazolin values in parenthesis, read-out: MIC
[28] = Serratia, ATCC13880, Serratia marc. ATCC 13880, cefazolin values in parenthesis, read-out: MIC

SMILES	MIC [1, 18] [µg/mL]	MIC [2, 19] [µg/mL]	MIC [3, 20] [µg/mL]	MIC [4, 21] [µg/mL]	MIC [5, 22] [µg/mL]	MIC ([6]; read-out: MIC) [µg/mL]	MIC [7, 23] [µg/mL]	MIC [8, 24] [µg/mL]	MIC [9] [µg/mL]	MIC [10, 25] [µg/mL]	MIC ([11]; read-out: MIC) [µg/mL]	MIC [12, 26] [µg/mL]	MIC [15] [µg/mL]	MIC ([15]; read-out: MIC) [µg/mL]	MIC [16, 27] [µg/mL]	MIC [17, 28] [µg/mL]	further results
CCOP(=O)(O)Cn1nnnc1SCC1=C(C(=O)O)N2C(=O)[C@@H](NC(=O)[C@H](O)c3ccccc3)[C@H]2SC1 [Compound B, 7β-D-mandelamido-3-(1-ethoxyhydroxyphosphinylmethyltetrazol-5-ylthiomethyl)-3-cephem-4-carboxylic acid disodium salt hydrate]	1.6	0.4	3.1	0.8	0.4	0.4	1.6	> 200	6.3	1.6	> 200	100	–	–	–	–	MIC ([2]; E. coli SK 12140, in vitro, cefazolin values in parenthesis, disodium salt hydrate): 0.8 µg/mL; MIC ([12]; cefazolin values in parenthesis, disodium salt hydrate): 50 µg/mL; ED50 ([13]; Escherichia coli, 12140, sc): 1.02 mg/kg; ED50 ([14]; Mus musculus): 0.39 mg/kg
Cc1nnc(SCC2=C(C(=O)O)N3C(=O)[C@@H](NC(=O)Cn4cnnn4)[C@H]3SC2)s1 [cefazolin, reference compound]	1.6 (≈ 3.52 µM)	0.8 (≈ 1.76 µM)	–	0.8 (≈ 1.76 µM)	0.8 (≈ 1.76 µM)	1.6 (≈ 3.52 µM)	3.1 (≈ 6.82 µM)	> 200	0.4 (≈ 0.88 µM)	0.4 (≈ 0.88 µM)	–	6.3 (≈ 13.9 µM)	100 (≈ 220 µM)	200 (≈ 440 µM)	0.8 (≈ 1.76 µM)	> 200	MIC ([1]; E. coli HH 33779, cefazolin values in parenthesis): 0.8 µg/mL (≈ 1.76 µM); MIC ([5]; Kleb. pneumo. SK 1200, in vitro, cefazolin values in parenthesis): 0.4 µg/mL (≈ 0.88 µM); MIC ([10]; S. aureus SK 23390, in vitro, cefazolin values in parenthesis): 0.2 µg/mL (≈ 0.44 µM); MIC [11]: 100 µg/mL (≈ 220 µM); MIC ([16]; Salmonella ATCC 12176, cefazolin values in parenthesis): 0.4 µg/mL (≈ 0.88 µM); MIC ([17]; ATCC13880, Serratia marc. ATCC 13880, cefazolin values in parenthesis, read-out: MIC): 50 µg/mL (≈ 110 µM); ED50 ([13]; Escherichia coli, sc, mouse protection, E. coli 12140, subcutaneous, read-out: ED50): 4.4 mg/kg; ED50 ([14]; mouse protection, Kleb. pneumo. 4200, subcutaneous, read-out: ED50): 7.2 mg/kg
CCOP(=O)(Cn1nnnc1SCC1=C(C(=O)[O-])N2C(=O)[C@@H](NC(=O)[C@H](O)c3ccccc3)[C@H]2SC1)OCC.O.[Na+] [Compound A, 7β-D-mandelamido-3-(1-diethoxyphosphinylmethyltetrazol-5-ylthiomethyl)-3-cephem-4-carboxylic acid sodium salt hydrate]	–	–	–	–	–	–	–	–	–	–	50	–	3.1	–	–	–	MIC ([1]; E. coli HH 33779, cefazolin values in parenthesis, sodium salt hydrate): 6.3 µg/mL; MIC ([1]; Escherichia coli, HH33779, E. coli HH 33779, cefazolin values in parenthesis): 12.5 µg/mL; MIC ([2]; Escherichia coli, SK12140): 6.3 µg/mL; MIC [3]: 12.5 µg/mL; MIC [4]: 3.1 µg/mL; MIC [5]: 3.1 µg/mL; MIC [6]: 3.1 µg/mL; MIC ([6]; sodium salt hydrate): 1.6 µg/mL; MIC ([7]; Proteus mirabilis 444, cefazolin values in parenthesis, sodium salt hydrate): 1.6 µg/mL; MIC ([7]; Proteus mirabilis, 444, Proteus mirabilis 444, cefazolin values in parenthesis): 3.1 µg/mL; MIC ([15]; sodium salt hydrate): 1.6 µg/mL; MIC [8]: > 200 µg/mL; MIC ([10]; Staphylococcus aureus, SK23390): 0.8 µg/mL; MIC ([16]; Salmonella ATCC 12176, cefazolin values in parenthesis, sodium salt hydrate): 1.6 µg/mL; MIC ([16]; Salmonella, ATCC12176, Salmonella ATCC 12176, cefazolin values in parenthesis): 3.1 µg/mL; MIC ([17]; Serratia marc. ATCC 13880, cefazolin values in parenthesis, sodium salt hydrate): 12.5 µg/mL; MIC ([17]; Serratia, ATCC13880, Serratia marc. ATCC 13880, cefazolin values in parenthesis): 25 µg/mL; MIC ([12]; Enterococcus faecalis, HH34358, cefazolin values in parenthesis): 12.5 µg/mL; MIC ([12]; cefazolin values in parenthesis, sodium salt hydrate): 25 µg/mL
O=C(O)C1=C(CSc2nnnn2CP(=O)(O)O)CS[C@@H]2[C@H](NC(=O)[C@H](O)c3ccccc3)C(=O)N12 [Compound C, 7β-D-mandelamido-3-(1-phosphonomethyltetrazol-5-ylthiomethyl)-3-cephem-4-carboxylic acid]	3.1 (≈ 5.71 µM)	3.1 (≈ 5.71 µM)	6.3 (≈ 11.6 µM)	1.6 (≈ 2.95 µM)	0.8 (≈ 1.47 µM)	1.6 (≈ 2.95 µM)	0.4 (≈ 0.737 µM)	> 200	6.3 (≈ 11.6 µM)	3.1 (≈ 5.71 µM)	> 200	200 (≈ 369 µM)	–	50 (≈ 92.2 µM)	0.8 (≈ 1.47 µM)	3.1 (≈ 5.71 µM)	–
